Test results: patent US20230203095A1, “BIOLOGICAL PEPTIDE FOR TREATING LUNG DISEASES AND APPLICATION THEREOF” (SHANGHAI INSTITUTE OF PHARMACEUTICAL INDUSTRY CO., LTD., priority 2019, published 2023)
Where two headings read alike, the source gives them in different places. Each block holds one molecule with its values, some of them ahead of it. Square brackets hold non-standard residues; d marks the D form. Peptide text beside a SMILES is read from it. * marks the point of attachment. X1 = CC(=O)N[C@H]1C(*)O[C@H](CO)[C@@H](O)[C@@H]1O

Assays:
[1] = Stability of each 7-peptide compound in rat whole blood; format: in vitro ADME; details: for stability in whole blood: compared with SP peptide; for recovery: read-out: Recovery rate (%) M±SD
Description: Preparation of the test product: SP and SIPI-D00 were dissolved and diluted with an appropriate amount of 50% acetonitrile water containing 0.1% formic acid to obtain a working solution with a concentration of 200 µg/mL.
• 1) Fresh rat whole blood was added to the EP tube, and shaken gently to mix well; • 2) The EP tube was pre-incubated in a 37° C. water bath for 5 minutes; • 3) Each compound was added to start the reaction and continued to incubate at 37° C.; • 4) 50 µL sample was taken from the sample tube at 0, 2 min, 5 min, 10 min, 30 min, and 60 min, respectively, into the stop tube, 50 µL of ice-cold 7% perchloric acid was added, and shaken to stop the reaction; • 5) Sample was centrifuged at 13000 r/min for 10 min, 75 µL supernatant was aspirated, 60 µL1.25% ammonia water was added and mixed well. After filtered with […] microporous membrane, 20 µL sample was taken for LC-MS/MS analysis.

[2] = Plasma drug concentrations and pharmacokinetics after a single subcutaneous injection of SP peptide or SIPI-D00 peptide in SD rats; format: in vivo
Description: Route: Single back subcutaneous injection;
Dosage of the drug: SP peptide and SIPI-D00 peptide were prepared into 3.33 mg/mL solution with normal saline, the dosage of SP peptide by back subcutaneous injection was 10 mg/kg body weight, and the dosage of SIPI-D00 peptide by back subcutaneous injection was 5 mg/kg body weight. […]

[3] = tested on: OVA-induced asthma model mice; experiment: Lung function (inspiratory airway resistance, lung compliance) in OVA-induced allergic asthma model mice; format: in vivo, BALB/c mice; details: for Inspiratory airway resistance / Lung compliance: n=10
Description: (§1) The second batch: mice were divided into groups, 10 mice in each group, namely: blank control group (normal saline), model group (OVA, dose of 20 ug/mouse), SP peptide group (administered dose of 87.5 µg/kg body weight/ day, 175 µg/kg body weight/day, 350 µg/kg body weight/day, respectively), SIPI-D00 peptide group (administered dose of 87.5 µg/kg body weight/day, 175 µg/kg body weight/day, 350 µg/kg body weight/day), and Dexamethasone group (administered dose of 2 mg/kg body weight/day).
(§2) Mice in the model group, SP peptide group, SIPI-D00 peptide group and dexamethasone group were sensitized by intraperitoneal injection of OVA (20 µg OVA/mice) on day 0, 7, and 14, and challenged by aerosol administration of OVA (once a day for 5 consecutive days) on day 21-25 to construct asthmatic model animals. Mice in the model group were given normal saline on days 21-28; mice in different doses of SP peptide group and SIPI-D00 peptide group were injected subcutaneously with different doses of SP and SIPI-D00 on days 19-28; mice in dexamethasone group were injected intraperitoneally with 2 mg/kg/day dexamethasone on days 21-28. At the same time, 10 mice in the blank control group were fed normally from day 0 to day 28 without any treatment, and were given normal saline as a blank control.
On the 28th day, the mice were anesthetized with tracheal intubation and jugular vein intubation, and the inspiratory airway resistance and lung compliance were measured in each group of animals. Each animal was given fold increasing amounts of methacholine via the jugular vein: 0.025 mg/kg, 0.05 mg/kg, 0.1 mg/kg, 0.2 mg/kg. After each dose was given, the lung compliance curve was recorded continuously for 5 minutes, and the inspiratory airway resistance and lung compliance were calculated. […]
(§3) At the same time, 10 mice in the blank control group were fed normally from day 0 to day 28 without any treatment, and were given normal saline as a blank control.

[4] = tested on: OVA-induced asthma model mice; experiment: Lung pathology (H&E) of OVA-induced asthma model mice; format: in vivo, BALB/c mice; details: after 28 days
Description: as §1, with “first” for “second”, “(OVA,” for “(OVA, dose of”, “of” for “of 87.5 µg/kg body weight/ day,”, “of” for “of 87.5 µg/kg body weight/day,”, “dexamethasone” for “Dexamethasone”
as §2
After 28 days, the mouse lung tissue was taken out, fixed in 4% formaldehyde, embedded in paraffin, sectioned, and stained with H&E for pathological observation.
The first batch: mice were divided into groups, 10 mice in each group, namely: blank control group (normal saline), model group (OVA, 20 ug/mice), and SP peptide group (administered dose of 175 µg/kg body weight/day, 350 µg/kg body weight/day, respectively), SIPI-G5 peptide group (administered dose of 175 µg/kg body weight/day, 350 µg/kg body weight/day), dexamethasone group (administered dose of 2 mg/kg body weight/day).
as §3

[5] = rat whole blood, 37° C., 1000 ng/mL, incubation time 0 min
[6] = rat whole blood, 37° C., 1000 ng/mL, incubation time 2 min
[7] = rat whole blood, 37° C., 1000 ng/mL, incubation time 5 min
[8] = rat whole blood, 37° C., 1000 ng/mL, incubation time 10 min
[9] = rat whole blood, 37° C., 1000 ng/mL, incubation time 30 min
[10] = rat whole blood, 37° C., 1000 ng/mL, incubation time 60 min
[11] = 87.5 ug/kg/day s.c., methacholine 0 mg/kg
[12] = 87.5 ug/kg/day s.c., methacholine 0.025 mg/kg
[13] = 87.5 ug/kg/day s.c., methacholine 0.05 mg/kg
[14] = 87.5 ug/kg/day s.c., methacholine 0.1 mg/kg
[15] = 87.5 ug/kg/day s.c., methacholine 0.2 mg/kg
[16] = 175 ug/kg/day s.c., methacholine 0 mg/kg
[17] = 175 ug/kg/day s.c., methacholine 0.025 mg/kg
[18] = 175 ug/kg/day s.c., methacholine 0.05 mg/kg
[19] = 175 ug/kg/day s.c., methacholine 0.1 mg/kg
[20] = 175 ug/kg/day s.c., methacholine 0.2 mg/kg
[21] = 350 ug/kg/day s.c., methacholine 0 mg/kg
[22] = 350 ug/kg/day s.c., methacholine 0.025 mg/kg
[23] = 350 ug/kg/day s.c., methacholine 0.05 mg/kg
[24] = 350 ug/kg/day s.c., methacholine 0.1 mg/kg
[25] = 350 ug/kg/day s.c., methacholine 0.2 mg/kg

recovery [1, 5]: 100%
recovery [1, 6]: 97.9 ± 7.4%
recovery [1, 7]: 101 ± 10.7%
recovery [1, 8]: 99.6 ± 1.3%
recovery [1, 9]: 97.9 ± 2.5%
Recovery rate (%) M±SD [1, 10]: 103±3.9%
recovery [1, 10]: 100%
Plasma concentration ([2]; SIPI-D00 5 mg/kg s.c., SD rats, time 0 h, parallels 1-4): 0 ng/mL
Plasma concentration ([2]; SIPI-D00 5 mg/kg s.c., SD rats, time 0.1 h, parallels 1-4, 5 mg/kg): 5167 ng/mL
Plasma concentration ([2]; SIPI-D00 5 mg/kg s.c., SD rats, time 0.333 h, parallels 1-4, 5 mg/kg): 5836 ng/mL
Plasma concentration ([2]; SIPI-D00 5 mg/kg s.c., SD rats, time 0.667 h, parallels 1-4, 5 mg/kg): 5242 ng/mL
Plasma concentration ([2]; SIPI-D00 5 mg/kg s.c., SD rats, time 2 h, parallels 1-4, 5 mg/kg): 1185 ng/mL
Fa ([2]; SIPI-D00 5 mg/kg single subcutaneous injection, SD rats, Mean±SD): 96.3±13.3%
level at 0.1 h ([2]; male, SD, rat, plasma, sc, 5 mg/kg, SIPI-D00 5 mg/kg s.c., SD rats, time 0.1 h, parallels 1-4, read-out: Plasma concentration): 3580 ng/mL
level at 0.167 h ([2]; male, SD, rat, plasma, sc, 5 mg/kg, SIPI-D00 5 mg/kg s.c., SD rats, time 0.167 h, parallels 1-4, read-out: Plasma concentration): 4720 ng/mL
level at 0.333 h ([2]; male, SD, rat, plasma, sc, 5 mg/kg, SIPI-D00 5 mg/kg s.c., SD rats, time 0.333 h, parallels 1-4, read-out: Plasma concentration): 5890 ng/mL
level at 0.667 h ([2]; male, SD, rat, plasma, sc, 5 mg/kg, SIPI-D00 5 mg/kg s.c., SD rats, time 0.667 h, parallels 1-4, read-out: Plasma concentration): 5260 ng/mL
level at 1 h ([2]; male, SD, rat, plasma, sc, 5 mg/kg, SIPI-D00 5 mg/kg s.c., SD rats, time 1 h, parallels 1-4, read-out: Plasma concentration): 3940 ng/mL
level at 2 h ([2]; male, SD, rat, plasma, sc, 5 mg/kg, SIPI-D00 5 mg/kg s.c., SD rats, time 2 h, parallels 1-4, read-out: Plasma concentration): 1160 ng/mL
level at 3 h ([2]; male, SD, rat, plasma, sc, 5 mg/kg, SIPI-D00 5 mg/kg s.c., SD rats, time 3 h, parallels 1-4, read-out: Plasma concentration): 291 ng/mL
level at 4 h ([2]; male, SD, rat, plasma, sc, 5 mg/kg, SIPI-D00 5 mg/kg s.c., SD rats, time 4 h, parallels 1-4, read-out: Plasma concentration): 53.5 ng/mL
level at 6 h ([2]; male, SD, rat, plasma, sc, 5 mg/kg, SIPI-D00 5 mg/kg s.c., SD rats, time 6 h, parallels 1-4, read-out: Plasma concentration): 3.51 ng/mL
AUC compared with SP ([2]; rat, in vivo, sc): significantly improved compared with SP
AUC(0-t) ([2]; rat, in vivo, sc, 5 mg/kg): 8820 ± 1320 ng·h/mL
Cmax ([2]; rat, in vivo, sc, 5 mg/kg): 5910 ± 447 ng/mL
MRT last ([2]; rat, in vivo, sc, 5 mg/kg): 57.8 ± 1.14 min
Tmax ([2]; rat, in vivo, sc, 5 mg/kg): 12.5 ± 4.98 min
half-life ([2]; rat, in vivo, sc, 5 mg/kg): 90 min
Compound: C[C@H](O)[C@@H](NC(=O)[C@@H](Cc1ccc(O)cc1)NC(=O)[C@H](NC(=O)[C@@H](CO)NC(=O)CN)[C@H](C)O)C(=O)N[C@H](CCC(N)=O)C(=O)NCC(=O)O [SIPI-D00, GSTYTQG] (H-G[dS][dT][dY][dT][dQ]G-OH)
stability in whole blood [1]: significantly higher than that of SP peptide
Inspiratory airway resistance [3, 11]: 1.00±0.00
Lung compliance [3, 11]: 1.00±0.00
Inspiratory airway resistance [3, 12]: 1.32±0.32
Lung compliance [3, 12]: 0.80±0.18
Inspiratory airway resistance [3, 13]: 1.64±0.35
Lung compliance [3, 13]: 0.64±0.14
Inspiratory airway resistance [3, 14]: 1.86±0.43
Lung compliance [3, 14]: 0.57±0.13
Inspiratory airway resistance [3, 15]: 2.05±0.51
Lung compliance [3, 15]: 0.52±0.13
Inspiratory airway resistance [3, 16]: 1.00±0.00
Lung compliance [3, 16]: 1.00±0.00
Inspiratory airway resistance [3, 17]: 1.21±0.15
Lung compliance [3, 17]: 0.84±0.10
Inspiratory airway resistance [3, 18]: 1.35±0.18
Lung compliance [3, 18]: 0.75±0.10
Inspiratory airway resistance [3, 19]: 1.47±0.21
Lung compliance [3, 19]: 0.69±0.093
Inspiratory airway resistance [3, 20]: 1.58±0.34
Lung compliance [3, 20]: 0.65±0.12
Inspiratory airway resistance [3, 21]: 1.00±0.00
Lung compliance [3, 21]: 1.00±0.00
Inspiratory airway resistance [3, 22]: 1.28±0.30
Lung compliance [3, 22]: 0.83±0.14
Inspiratory airway resistance [3, 23]: 1.43±0.35
Lung compliance [3, 23]: 0.70±0.19
Inspiratory airway resistance [3, 24]: 1.61±0.47
Lung compliance [3, 24]: 0.55±0.18
Inspiratory airway resistance [3, 25]: 1.74±0.51
Lung compliance [3, 25]: 0.49±0.19
inspiratory phase resistance (in words) ([3]; compared with the model group): significantly decreased
lung compliance (in words) ([3]; compared with the model group): significantly increased
lung pathology, H&E ([4]; high-dose group (350 µg/kg body weight/day)): less inflammatory cell infiltration and clear alveolar cavity
lung pathology, H&E ([4]; low-dose group (175 µg/kg body weight/day)): more inflammatory cells infiltrating in the lungs
infiltration of inflammatory cells in the lungs, H&E ([4]; overall): significantly reduce the infiltration of inflammatory cells

recovery [1, 5]: 100%
recovery [1, 6]: 98.8 ± 4.6%
recovery [1, 7]: 98.3 ± 2.9%
recovery [1, 8]: 96.3 ± 4.9%
recovery [1, 9]: 95.9 ± 1%
recovery [1, 10]: > 90%
Compound: CC(=O)N[C@H]1C(OC[C@H](NC(=O)[C@@H](NC(=O)[C@H](Cc2ccc(O)cc2)NC(=O)[C@@H](NC(=O)[C@H](CCC(N)=O)NC(=O)CN)[C@@H](C)OC2O[C@H](CO)[C@@H](O)[C@H](O)[C@H]2NC(C)=O)[C@@H](C)O)C(=O)NCC(=O)O)O[C@H](CO)[C@@H](O)[C@@H]1O (some centres unmarked) [SIPI-G9, GQT(Glc)YTS(Glc)G] (H-GQT(X1)YTS(X1)G-OH)
stability in whole blood [1]: significantly higher than that of SP peptide
